Where “and” joins values, the source holds several entries; their conditions need not be identical. Equal values may be shown once.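 48-hour exposure; five concentrations; linearly interpolated endpoints. Abbreviation: GI50, concentration required for 50% inhibition of growth. Definition used: TGI = concentration required for complete inhibition of growth.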
Assays:
Assay in all cases: NCI-60 cell line screen, 48 h
[1] = tested on: A549 NSCLC
[2] = tested on: SW-620 colon
[3] = tested on: T-47D breast
[4] = tested on: NCI/ADR-RES ovarian
[5] = tested on: CAKI-1 renal
[6] = tested on: MDA-N
[7] = tested on: SF-268 CNS
[8] = tested on: HCC-2998 colon
[9] = tested on: UACC-257 melanoma
[10] = tested on: DMS 114 small cell lung

SMILES | TGI [1] | TGI [2] | TGI [3] | TGI [4] | TGI [5] | TGI [6] | TGI [7] | TGI [8] | TGI [9] | TGI [10] | GI50 [1] | GI50 [2] | GI50 [3] | GI50 [4] | GI50 [5] | GI50 [7] | GI50 [8] | GI50 [9]
c1cncc(C(Nc2cccc3cccnc23)Nc2cccc3cccnc23)c1 | > 100 µM | > 100 µM | > 100 µM | > 100 µM | > 100 µM | > 100 µM | > 100 µM | > 100 µM | > 100 µM |  |  |  |  |  |  |  |  | 
COc1ccc2nc(NC(=O)C(=O)CC(=O)c3ccc(Cl)cc3)sc2c1 | > 100 µM | > 100 µM |  |  | > 100 µM |  | > 100 µM | > 100 µM | > 100 µM | > 100 µM |  |  |  |  |  |  |  | 
COc1cc2c(OC)c(c1)CCCC1=CC(=O)C=C(CCC2)C1=O | > 100 µM | > 77 µM | 43.5 µM | > 65.7 µM | > 100 µM | 30.2 µM | > 100 µM | > 100 µM | > 100 µM |  |  |  |  |  |  |  |  | 
Cn1c2ccc([N+](=O)[O-])cc2c(=O)c2c(O)cc(O)cc21 | > 100 µM | > 100 µM | > 100 µM | 55 µM | > 100 µM | > 100 µM | 80.2 µM | > 100 µM | > 100 µM |  |  |  |  |  |  |  |  | 
CCOC(=O)C#Cc1ccc(C#CC(=O)OCC)cc1 | > 37.5 µM | > 27.4 µM | > 100 µM | 15.3 µM | > 20.2 µM | 4.87 µM | > 22.4 µM |  | > 56.4 µM |  |  |  |  |  |  |  |  | 
Cc1c(C(=O)CC(=O)C(=O)Nc2cccc(C(F)(F)F)c2)[n+](=O)c2ccccc2n1[O-] | 32.1 µM | 12.2 µM |  |  | 21 µM |  | 14.4 µM | 16.1 µM | 6.73 µM | 4.43 µM |  |  |  |  |  |  |  | 
CN(C)c1ccc(/C=C2\N=C(c3ccc(N)cc3)OC2=O)cc1 | > 100 µM | > 100 µM |  |  | > 100 µM |  | > 100 µM | > 100 µM | > 100 µM | > 100 µM |  |  |  |  |  |  |  | 
COC[C@H]1OC(=O)c2coc3c2[C@@]1(C)C1=C(C3=O)[C@@H]2CCC(=O)[C@@]2(C)C[C@H]1OC(C)=O | > 100 µM | > 100 µM | > 46.2 µM | > 100 µM |  | > 100 µM | > 100 µM | 20 µM | > 100 µM |  |  |  |  |  |  |  |  | 
O=C(N/N=C/c1ccc(O)cc1O)c1ccc(Nc2ccnc(C(F)(F)F)c2)cc1 | > 100 µM | > 100 µM | > 100 µM | > 100 µM | 1.8 µM |  | 33.3 µM | > 100 µM | > 100 µM |  | > 100 µM | > 100 µM | 1.29 µM | > 100 µM | 0.0533 µM | 0.156 µM | > 75.2 µM | > 100 µM
O[C@]12CCCC[C@H]1CCC2 | > 100 µM | > 100 µM |  |  | > 100 µM |  | > 100 µM | > 100 µM | > 100 µM | > 100 µM |  |  |  |  |  |  |  | 
CC(=O)O[C@@H]1CC(C)C2CC2C2=C(C(O)OC2O)[C@@H]1C(C)CCC=C(C)C (stereo partly specified) | 51.7 µM | 51.2 µM |  |  | 58.3 µM |  | 65.5 µM | 40.5 µM | 62.9 µM | 50.4 µM |  |  |  |  |  |  |  | 
CCOC(=O)C(Cc1c[nH]c2cc([N+](=O)[O-])ccc12)(NC(C)=O)C(=O)OCC | > 1000 µM | > 1000 µM | > 1000 µM | > 1000 µM | > 1000 µM |  | > 1000 µM | > 1000 µM | > 1000 µM |  |  | > 1000 µM | 40.7 µM and 105 µM | 92.2 µM and 331 µM | 190 µM | 95.1 µM | > 1000 µM | 
CCc1oc2ccccc2c1C(=O)c1cc(Br)c(O)c(Br)c1 | > 100 µM | > 100 µM | 53.6 µM | 87.2 µM | > 100 µM | > 100 µM | 84.7 µM |  | 42.8 µM |  |  |  |  |  |  |  |  | 
O=C1NC2(O)c3ccccc3C(=O)C2(O)N1c1ccccc1 (stereo unspecified) | > 100 µM | > 100 µM |  |  | > 100 µM |  | > 100 µM | > 100 µM | > 100 µM | > 100 µM |  |  |  |  |  |  |  | 
O=C(O)c1ccc(NS(=O)(=O)c2cccc3cccnc23)cc1 | > 100 µM | > 100 µM | > 100 µM | > 100 µM | > 100 µM |  | > 100 µM | > 100 µM | > 100 µM |  | > 100 µM | > 100 µM | > 100 µM | > 100 µM | > 100 µM | > 100 µM | > 100 µM | > 100 µM
Cc1ccc(C(=O)N/N=C/c2cccc(Oc3ccccc3)c2)cn1 | > 100 µM | > 100 µM | > 74.3 µM | > 71.4 µM | > 100 µM |  | > 100 µM | > 100 µM | > 100 µM |  | 17 µM | 4.79 µM | 6.3 µM | 4.43 µM | 4.41 µM | 34.5 µM | 16.1 µM | > 56.3 µM
C#CC[C@H](c1nc2cc(Cl)ccc2c(=O)n1Nc1ccccc1)N(CCCN)C(=O)c1cccc(Cl)c1F | 1.87 µM | 1.81 µM | 1.98 µM | 30 µM | 8.19 µM |  | 2.61 µM | 1.39 µM | 2.37 µM |  | 0.255 µM | 0.237 µM | 0.484 µM | 14.2 µM | 2.6 µM | 0.214 µM | 0.178 µM | 1.02 µM
c1cncc(CNc2ccccc2-c2nnc(Nc3ccc4c(c3)OCCO4)o2)c1 | > 100 µM | > 100 µM | 60.2 µM | > 100 µM | > 100 µM |  | > 100 µM |  | > 100 µM |  | 0.294 µM | 0.0576 µM | 3.57 µM | 0.0557 µM | 0.215 µM | 0.646 µM | 0.255 µM | 11.6 µM
CCOc1cc2ncc(C#N)c(Nc3ccc(F)c(Cl)c3)c2cc1NC(=O)/C=C/CN(C)C | > 9.66 µM | 3.23 µM | > 3.37 µM | > 10 µM | 0.952 µM |  | > 6.99 µM | > 10 µM | > 6.03 µM |  | 0.324 µM | 0.485 µM | 0.108 µM | 0.679 µM | 0.0278 µM | 0.265 µM | 1.13 µM | 1.27 µM
Cc1ccc2c(=O)[nH]sc2c1 | 43.1 µM | 33.2 µM | 41.8 µM | 55.8 µM | 17.8 µM | 27 µM | 39 µM | 36.9 µM | 44.1 µM |  |  |  |  |  |  |  |  | 

From PubChem BioAssay (NCI)
